System: HN5 cells
Test: Rescue experiment: antibody pre-incubated with GPR87 N-terminal peptide
Type: cell-based, human
Conditions: 50 ug/ml antibody, increasing amounts of peptide, Fig. 7B
Description: Antibody targeting of hGPR87 on living cells is performed as follows: For antibody applications on living HN5 cells, a rabbit anti-hGPR87, directed against the N-terminus of hGPR87 (Novus Biologicals) is used (in Fig. 7A: N-term). HN5 cells are seeded (75000/6-well and 3000/96-well) the day prior to the antibody treatment. The antibody is used at a concentration of 50 ug/ml in medium without serum. 48 h after antibody addition the cells are either lysed for western blot analysis or analysed by AlamarBlue staining. Briefly, 10 ul of AlamarBlue reagent (Biosource, Camarillo USA/CA) are added to 100 ul medium and incubated until a change in color can be recognized (~6 hours). As a control, 50ug/ml antibody targeting C-terminal domain of human GPR87 is used (in Fig. 7A: C-term). Since antibodies are dissolved in PBS containing 0.01 %sodium azide, 0.01% sodium azide in PBS is added to the cells as a control to exclude toxic side effects (SA ctrl in Fig. 7A).
To determine the specificity of the anti-GPR87 antibody recognizing the N-terminus, in a so-called "rescue experiment", a peptide covering the first 46 amino acids of SEQ ID NO:2, is added. (The amounts used are 50 ug/ml of antibody and increasing amounts of GPR87 N-terminal peptide). […] The reversibility of the effects (proliferation and viability) correlates with the concentration of the blocking peptide (Fig. 7B).

GPR87 N-terminal peptide: a peptide covering the first 46 amino acids of SEQ ID NO:2 (MGFNLTLAKLPNNELHGQESHNSGNRSDGPGKNTTLHNEFDTIVLP)
reversal of the pro-apoptotic, anti-proliferative effect of the antibody: can be reversed
